Where two headings read alike, the source gives them in different places.
System: hepatocellular carcinoma cell line Hub-7
Assay: Cell proliferation assay (CELL-TITER GLO cell viability)
Assay type: cell-based
Settings: Hub-7 cells, 24 h incubation, read-out: Inhibition of Cell Proliferation EC50
Method: The activity of a test compound was determined in a cell proliferation assay using the hepatocellular carcinoma cell line […]. Cells (4,000 cells per well) were seeded in a 96-well tissue culture plate. After incubated overnight, a test compound was added at predetermined concentrations, starting with 10 μM and followed by 3-fold serial dilution. After the cells were incubated for 24 h, cell viability was determined using a CELL-TITER GLO® assay. The CELL-TITER GLO® reagent (50 μL) was added to each well and the luminescence was measured by a multimode microplate reader after a brief period of shaking. EC50 values were determined for the test compound. The results are summarized in Table 1, wherein A represents a value no greater than 100 nM, B represents a value greater than 100 nM but no greater than 500 nM, C represents a value greater than 500 nM but no greater than 2 μM, D represents a value greater than 2 μM but no greater than 10 μM; and E represents a value greater than 10 μM.

Structure (SMILES)	EC50 (24 h) [nM]	EC50 [nM]
C#CC(=O)N(c1cccc(Cl)c1)C(C(=O)NCc1ccccc1)c1ccc(F)cc1 (stereo not drawn) [A87, N-(2-(Benzylamino)-1-(4-fluorophenyl)-2-oxoethyl)-N-(3-chlorophenyl)-propiolamide]	≤ 100	–
C#CC(=O)N(c1ccc2scnc2c1)C(C(=O)NCc1ccccc1)c1ccccc1 (stereo not drawn) [A88, N-(Benzo[d]thiazol-5-yl)-N-(2-(benzylamino)-2-oxo-1-phenylethyl)-propiolamide]	≤ 100	–
C#CC(=O)N(c1cccc2c1CCC2=O)C(C(=O)NCc1ccccc1)c1ccccc1 (stereo not drawn) [A89, N-(2-(Benzylamino)-2-oxo-1-phenylethyl)-N-(1-oxo-2,3-dihydro-1H-inden-4-yl)propiolamide]	≤ 100	–
C#CC(=O)N(c1cccc(Cl)c1)C(C(=O)NCc1ccccc1)c1ccccc1F (stereo not drawn) [A90, N-(2-(Benzylamino)-1-(2-fluorophenyl)-2-oxoethyl)-N-(3-chlorophenyl)-propiolamide]	≤ 100	–
C#CC(=O)N(c1cc(Cl)ccc1I)C(C(=O)NCc1ccccc1)c1ccccc1 (stereo not drawn) [A91, N-(2-(Benzylamino)-2-oxo-1-phenylethyl)-N-(5-chloro-2-iodophenyl)-propiolamide]	≤ 100	–
C#CC(=O)N(c1cccc(S(C)(=O)=O)c1)C(C(=O)NCc1ccccc1)c1ccccc1 (stereo not drawn) [A92, N-(2-(Benzylamino)-2-oxo-1-phenylethyl)-N-(3-(methylsulfonyl)-phenyl)-propiolamide]	100 to 500	–
C#CC(=O)N(c1ccc(OC)c(Cl)c1)C(C(=O)NCc1ccccc1)c1ccccc1 (stereo not drawn) [A93, N-(2-(Benzylamino)-2-oxo-1-phenylethyl)-N-(3-chloro-4-methoxyphenyl)-propiolamide]	≤ 100	–
C#CC(=O)N(c1ccc2nsnc2c1)C(C(=O)NCc1ccccc1)c1ccccc1 (stereo not drawn) [A94, N-(Benzo[c][1,2,5]thiadiazol-5-yl)-N-(2-(benzylamino)-2-oxo-1-phenylethyl)-propiolamide]	≤ 100	–
C#CC(=O)N(c1cccc(Cl)c1)C(C(=O)NCc1ccccc1)c1cccc(CCO)c1 (stereo not drawn) [A95, N-(2-(Benzylamino)-1-(3-(2-hydroxyethyl)phenyl)-2-oxoethyl)-N-(3-chloro-phenyl)propiolamide]	100 to 500	–
C#CC(=O)N(c1ccc2c(c1)OCO2)C(C(=O)NCc1ccccc1)c1ccccc1 (stereo not drawn) [A96, N-(Benzo[d][1,3]dioxol-5-yl)-N-(2-(benzylamino)-2-oxo-1-phenylethyl)-propiolamide]	≤ 100	–
C#CC(=O)N(c1cccc2c1OCO2)C(C(=O)NCc1ccccc1)c1ccccc1 (stereo not drawn) [A97, N-(Benzo[d][1,3]dioxol-4-yl)-N-(2-(benzylamino)-2-oxo-1-phenylethyl)-propiolamide]	100 to 500	–
C#CC(=O)N(c1ccc2ncsc2c1)C(C(=O)NCc1ccccc1)c1ccccc1 (stereo not drawn) [A98, N-(Benzo[d]thiazol-6-yl)-N-(2-(benzylamino)-2-oxo-1-phenylethyl)-propiolamide]	100 to 500	–
C#CC(=O)N(c1ccc2c(c1)OC(F)(F)O2)C(C(=O)NCc1ccccc1)c1ccccc1 (stereo not drawn) [A99, N-(2-(Benzylamino)-2-oxo-1-phenylethyl)-N-(2,2-difluorobenzo[d][1,3]dioxol-5-yl)propiolamide]	≤ 100	–
C#CC(=O)N(c1cccc(C#N)c1)C(C(=O)NCc1ccccc1)c1ccccc1 (stereo not drawn) [A100, N-(2-(Benzylamino)-2-oxo-1-phenylethyl)-N-(3-cyanophenyl)propiolamide]	≤ 100	–
C#CC(=O)N(c1cccc(Cl)c1)C1(C(=O)NCc2ccccc2)CCCCC1 [A101, N-Benzyl-1-(N-(3-chlorophenyl)propiolamido)cyclohexanecarboxamide]	≤ 100	–
C#CC(=O)N(c1ccn(C)c(=O)c1)C(C(=O)NCc1ccccc1)c1ccccc1 (stereo not drawn) [A102, N-(2-(Benzylamino)-2-oxo-1-phenylethyl)-N-(1-methyl-2-oxo-1,2-dihydropyridin-4-yl)propiolamide]	2000 to 10000	–
C#CC(=O)N(c1cccc(Cl)c1)C1(C(=O)NCc2ccccc2)CCC(F)(F)CC1 [A103, N-Benzyl-1-(N-(3-chlorophenyl)propiolamido)-4,4-difluorocyclohexane-carboxamide]	≤ 100	–

Structure (SMILES)	EC50 (24 h) [nM]	EC50 [nM]
C#CC(=O)N(c1ccc2cnn(C)c2c1)C(C(=O)NCc1ccccc1)c1ccccc1 (stereo not drawn) [A104, N-(2-(Benzylamino)-2-oxo-1-phenylethyl)-N-(1-methyl-1H-indazol-6-yl)-propiolamide]	≤ 100	–
C#CC(=O)N(c1ccc2nncn2c1)C(C(=O)NCc1ccccc1)c1ccccc1 (stereo not drawn) [A105, N-([1,2,4]Triazolo[4,3-a]pyridin-6-yl)-N-(2-(benzylamino)-2-oxo-1-phenylethyl)-propiolamide]	100 to 500	–
C#CC(=O)N(c1cccc2nonc12)C(C(=O)NCc1ccccc1)c1ccccc1 (stereo not drawn) [A106, N-(Benzo[c][1,2,5]oxadiazol-4-yl)-N-(2-(benzylamino)-2-oxo-1-phenylethyl)-propiolamide]	100 to 500	–
C#CC(=O)N(c1ccc2c(cnn2C)c1)C(C(=O)NCc1ccccc1)c1ccccc1 (stereo not drawn) [A107, N-(2-(Benzylamino)-2-oxo-1-phenylethyl)-N-(1-methyl-1H-indazol-5-yl)-propiolamide]	≤ 100	–
C#CC(=O)N(c1ccc(Cl)c(Cl)c1)C1(C(=O)NCc2ccccc2)CCOCC1 [A108, N-Benzyl-4-(N-(3,4-dichlorophenyl)propiolamido)tetrahydro-2H-pyran-4-carboxamide]	≤ 100	–
C#CC(=O)N(c1ccc(Cl)c(Cl)c1)C1(C(=O)NCc2ccccc2)CCCCC1 [A109, N-Benzyl-1-(N-(3,4-dichlorophenyl)propiolamido)cyclohexanecarboxamide]	100 to 500	–
C#CC(=O)N(c1cccc(Cl)c1)[C@]1(C(=O)NCc2ccccc2)CC[C@H](O)CC1 [A110, (1S,4S)—N-Benzyl-1-(N-(3-chlorophenyl)propiolamido)-4-hydroxycyclohexane-carboxamide]	100 to 500	–
C#CC(=O)N(c1cccc(Cl)c1)[C@]1(C(=O)NCc2ccccc2)CC[C@@H](O)CC1 [A111, (1R,4R)—N-Benzyl-1-(N-(3-chlorophenyl)propiolamido)-4-hydroxycyclohexane-carboxamide]	–	100 to 500
C#CC(=O)N(c1cccc(Cl)c1)C(C(=O)NCc1ccc(C#N)cc1)c1ccccc1 (stereo not drawn) [A114, N-(3-chlorophenyl)-N-(2-((4-cyanobenzyl)amino)-2-oxo-1-phenylethyl)propiolamide]	≤ 100	–
C#CC(=O)N(c1cccc(Cl)c1)C(C(=O)NCc1ccc(F)cc1)c1ccccc1 (stereo not drawn) [A115, N-(3-Chlorophenyl)-N-(2-((4-fluorobenzyl)amino)-2-oxo-1-phenylethyl)-propiolamide]	≤ 100	–
C#CC(=O)N(c1cccc(Cl)c1)C(C(=O)NCc1ccccc1F)c1ccccc1 (stereo not drawn) [A116, N-(3-Chlorophenyl)-N-(2-((2-fluorobenzyl)amino)-2-oxo-1-phenylethyl)-propiolamide]	100 to 500	–
CC#CC(=O)N(c1cccc(Cl)c1)C(C(=O)NCc1ccccc1)c1ccccc1 (stereo not drawn) [A117, N-(2-(Benzylamino)-2-oxo-1-phenylethyl)-N-(3-chlorophenyl)but-2-ynamide]	> 10000	–
COc1ccc(N(C(=O)C#CCO)C(C(=O)NCCc2ccccc2)c2cccs2)cc1Cl (stereo not drawn) [A118]	–	2000 to 10000
C#CC(=O)N(c1ccc(Cl)cc1)C(C(=O)NC(C)(C)C)c1cccc(N)c1 (stereo not drawn) [A119]	≤ 100	–
C#CC(=O)N(c1cccc(C(=O)OC)c1)C(C(=O)NCc1ccccc1)c1cccc(N)c1 (stereo not drawn) [A122]	≤ 100	–
C#CC(=O)N(c1cccc(Cl)c1F)C(C(=O)NCc1ccccc1)c1ccc(N)cc1 (stereo not drawn) [A123]	≤ 100	–
